From PubChem BioAssay (NCI)
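Tested at 5 concentrations; 48 h exposure; 96-well plates; endpoints linearly interpolated, else capped at highest concentration. TGI is the concentration that stops growth completely.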

How the values were obtained:
Test in all cases: inhibition of tumour cell growth, NCI panel, 48 h
[1] = tested on: RXF 393 renal
[2] = tested on: 786-0 renal
[3] = tested on: SF-268 CNS
[4] = tested on: SW-620 colon
[5] = tested on: KM12 colon
[6] = tested on: TK-10 renal
[7] = tested on: SK-MEL-28 melanoma
[8] = tested on: UACC-257 melanoma
[9] = tested on: K-562 leukemia
[10] = tested on: SK-OV-3 ovarian
[11] = tested on: OVCAR-5 ovarian
[12] = tested on: HL-60(TB) leukemia
[13] = tested on: EKVX NSCLC
[14] = tested on: PC-3 prostate
[15] = tested on: MDA-N
[16] = tested on: NCI-H460 lung
[17] = tested on: HT29 colon
[18] = tested on: RPMI-8226 leukemia
[19] = tested on: OVCAR-3 ovarian
[20] = tested on: BT-549 breast
[21] = tested on: LOX IMVI melanoma
[22] = tested on: M14 melanoma
[23] = tested on: U251 CNS
[24] = tested on: MCF7 breast
[25] = tested on: HOP-62 NSCLC
[26] = tested on: UACC-62 melanoma
[27] = tested on: HCC-2998 colon
[28] = tested on: SK-MEL-5 melanoma
[29] = tested on: DU-145 prostate
[30] = tested on: OVCAR-4 ovarian
[31] = tested on: HS 578T breast
[32] = tested on: SK-MEL-2 melanoma
[33] = tested on: ACHN renal
[34] = tested on: T-47D breast
[35] = tested on: MDA-MB-231 breast
[36] = tested on: OVCAR-8 ovarian
[37] = tested on: NCI-H226 lung
[38] = tested on: SN12C renal
[39] = tested on: MALME-3M melanoma
[40] = tested on: HCT-116 colon
[41] = tested on: NCI/ADR-RES ovarian
[42] = tested on: CCRF-CEM leukemia
[43] = tested on: MOLT-4 leukemia
[44] = tested on: CAKI-1 renal
[45] = tested on: A549 NSCLC
[46] = tested on: MDA-MB-435
[47] = tested on: HCT-15 colon
[48] = tested on: NCI-H23 lung
[49] = tested on: IGROV1 ovarian
[50] = tested on: NCI-H522 lung
[51] = tested on: SF-539 CNS
[52] = tested on: SF-295 CNS
[53] = tested on: SNB-19 CNS
[54] = tested on: SNB-75 CNS
[55] = tested on: COLO 205 colon
[56] = tested on: HOP-92 NSCLC
[57] = tested on: SR leukemia
[58] = tested on: UO-31 renal
[59] = tested on: A498 renal

`O=C(O)CC(O)(C(=O)O)C(O)C(=O)O` (stereo unspecified) gave a TGI [1] greater than 1000 µM, a TGI [2] greater than 1000 µM and a TGI [3] greater than 1000 µM. It also gave a TGI [4] greater than 1000 µM, a TGI [5] greater than 1000 µM and a TGI [6] greater than 1000 µM. For the same compound, the TGI [7] was greater than 1000 µM, the TGI [8] was greater than 1000 µM and the TGI [9] was greater than 1000 µM. The TGI [10] was greater than 1000 µM, the TGI [11] was greater than 1000 µM and the TGI [12] was greater than 1000 µM. The TGI [13] was greater than 1000 µM, the TGI [14] was greater than 1000 µM and the TGI [15] was greater than 1000 µM. The TGI [16] was greater than 1000 µM, the TGI [17] was greater than 1000 µM and the TGI [18] was greater than 1000 µM. For the same compound, the TGI [19] was greater than 1000 µM, the TGI [20] was greater than 1000 µM and the TGI [21] was greater than 1000 µM. The TGI [22] was greater than 1000 µM, the TGI [23] was greater than 1000 µM and the TGI [24] was greater than 1000 µM. For the same compound, the TGI [25] was greater than 1000 µM, the TGI [26] was greater than 1000 µM and the TGI [27] was greater than 1000 µM. It also gave a TGI [28] greater than 1000 µM, a TGI [29] greater than 1000 µM and a TGI [30] greater than 1000 µM. It also gave a TGI [31] of 867 µM, a TGI [32] greater than 1000 µM and a TGI [33] greater than 1000 µM. It also gave a TGI [34] greater than 1000 µM, a TGI [35] greater than 1000 µM and a TGI [36] greater than 1000 µM. For the same compound, the TGI [37] was greater than 1000 µM, the TGI [38] was greater than 1000 µM and the TGI [39] was greater than 1000 µM. For the same compound, the TGI [40] was greater than 1000 µM, the TGI [41] was greater than 1000 µM and the TGI [42] was greater than 1000 µM. The TGI [43] was greater than 1000 µM, the TGI [44] was greater than 1000 µM and the TGI [45] was greater than 1000 µM. The TGI [46] was greater than 1000 µM, the TGI [47] was greater than 1000 µM and the TGI [48] was greater than 1000 µM. It also gave a TGI [49] greater than 1000 µM, a TGI [50] greater than 1000 µM and a TGI [51] greater than 1000 µM. For the same compound, the TGI [52] was greater than 1000 µM, the TGI [53] was greater than 1000 µM and the TGI [54] was greater than 1000 µM. The TGI [55] was greater than 1000 µM.

`COc1cc2c(c(OC)c1OC)-c1ccc(SC)cc1C(=O)CC2` gave a TGI [56] greater than 100 µM, a TGI [1] greater than 100 µM and a TGI [2] greater than 100 µM. The TGI [4] was greater than 100 µM, the TGI [6] was greater than 100 µM and the TGI [57] was greater than 100 µM. The TGI [7] was greater than 100 µM, the TGI [10] was less than 0.01 µM and the TGI [11] was greater than 100 µM. It also gave a TGI [12] of 10.8 µM, a TGI [13] greater than 100 µM and a TGI [14] greater than 100 µM. For the same compound, the TGI [15] was 27.2 µM, the TGI [16] was greater than 32.1 µM and the TGI [17] was less than 0.01 µM. For the same compound, the TGI [18] was greater than 47.7 µM, the TGI [19] was greater than 100 µM and the TGI [20] was greater than 100 µM. For the same compound, the TGI [21] was greater than 100 µM, the TGI [22] was greater than 100 µM and the TGI [23] was greater than 100 µM. It also gave a TGI [24] greater than 100 µM, a TGI [26] greater than 100 µM and a TGI [27] of 39.6 µM. The TGI [28] was greater than 100 µM, the TGI [30] was greater than 100 µM and the TGI [31] was greater than 100 µM. The TGI [32] was greater than 100 µM, the TGI [33] was greater than 100 µM and the TGI [34] was greater than 100 µM. The TGI [36] was greater than 100 µM, the TGI [38] was greater than 100 µM and the TGI [39] was greater than 21.9 µM. For the same compound, the TGI [42] was greater than 100 µM, the TGI [43] was greater than 100 µM and the TGI [44] was greater than 100 µM. It also gave a TGI [45] greater than 100 µM, a TGI [46] greater than 100 µM and a TGI [47] greater than 100 µM. It also gave a TGI [48] greater than 100 µM, a TGI [49] greater than 100 µM and a TGI [51] of less than 0.01 µM. For the same compound, the TGI [52] was greater than 100 µM, the TGI [53] was greater than 100 µM and the TGI [54] was greater than 100 µM.

Work on `C=CCC(SC)C1=C(C)C(=O)c2ccccc21` (stereo unspecified) yielded a TGI [56] greater than 10 µM, a TGI [1] greater than 10 µM and a TGI [2] greater than 10 µM. For the same compound, the TGI [3] was greater than 10 µM, the TGI [4] was greater than 10 µM and the TGI [5] was greater than 10 µM. It also gave a TGI [6] greater than 10 µM, a TGI [58] greater than 10 µM and a TGI [57] greater than 10 µM. For the same compound, the TGI [7] was greater than 10 µM, the TGI [8] was greater than 10 µM and the TGI [9] was greater than 10 µM. For the same compound, the TGI [10] was greater than 10 µM, the TGI [11] was greater than 10 µM and the TGI [13] was greater than 10 µM. It also gave a TGI [14] greater than 10 µM, a TGI [15] greater than 10 µM and a TGI [16] greater than 10 µM. It also gave a TGI [17] greater than 10 µM, a TGI [18] greater than 10 µM and a TGI [19] greater than 10 µM. The TGI [20] was greater than 10 µM, the TGI [21] was greater than 10 µM and the TGI [22] was greater than 10 µM. It also gave a TGI [23] greater than 10 µM, a TGI [24] greater than 10 µM and a TGI [25] greater than 10 µM. The TGI [26] was greater than 10 µM, the TGI [27] was greater than 10 µM and the TGI [28] was greater than 10 µM. The TGI [29] was greater than 10 µM, the TGI [32] was greater than 10 µM and the TGI [33] was greater than 10 µM. For the same compound, the TGI [34] was greater than 10 µM, the TGI [35] was greater than 10 µM and the TGI [36] was greater than 10 µM. It also gave a TGI [37] greater than 10 µM, a TGI [38] greater than 10 µM and a TGI [39] greater than 10 µM. It also gave a TGI [42] greater than 10 µM, a TGI [59] greater than 10 µM and a TGI [43] greater than 10 µM. The TGI [45] was greater than 10 µM, the TGI [46] was greater than 10 µM and the TGI [47] was greater than 10 µM. The TGI [48] was greater than 10 µM, the TGI [49] was greater than 10 µM and the TGI [51] was greater than 10 µM. For the same compound, the TGI [52] was greater than 10 µM and the TGI [53] was greater than 10 µM.

In the case of `COP(C)(=O)C(Cc1c[nH]c2ccccc12)NC(=O)OCc1ccccc1` (stereo unspecified), the TGI [56] is reported as greater than 100 µM, the TGI [1] is reported as greater than 100 µM and the TGI [2] is reported as greater than 100 µM. For the same compound, the TGI [3] was greater than 100 µM, the TGI [4] was greater than 100 µM and the TGI [5] was greater than 100 µM. The TGI [6] was greater than 100 µM, the TGI [58] was greater than 100 µM and the TGI [7] was greater than 100 µM. For the same compound, the TGI [8] was greater than 100 µM, the TGI [9] was greater than 100 µM and the TGI [10] was greater than 100 µM. The TGI [11] was greater than 100 µM, the TGI [12] was greater than 100 µM and the TGI [13] was greater than 100 µM. For the same compound, the TGI [14] was greater than 100 µM, the TGI [15] was greater than 100 µM and the TGI [16] was greater than 100 µM. For the same compound, the TGI [17] was greater than 100 µM, the TGI [18] was greater than 100 µM and the TGI [19] was greater than 100 µM. It also gave a TGI [20] greater than 100 µM, a TGI [21] greater than 100 µM and a TGI [22] greater than 100 µM. The TGI [23] was greater than 100 µM, the TGI [24] was greater than 100 µM and the TGI [25] was greater than 100 µM. It also gave a TGI [26] greater than 100 µM, a TGI [27] greater than 100 µM and a TGI [28] greater than 100 µM. It also gave a TGI [29] greater than 100 µM, a TGI [30] greater than 100 µM and a TGI [31] greater than 100 µM. It also gave a TGI [32] greater than 100 µM, a TGI [33] greater than 100 µM and a TGI [34] greater than 100 µM. It also gave a TGI [35] greater than 100 µM, a TGI [36] greater than 100 µM and a TGI [37] greater than 100 µM. The TGI [38] was greater than 100 µM, the TGI [39] was greater than 100 µM and the TGI [40] was greater than 100 µM. The TGI [41] was greater than 100 µM, the TGI [42] was greater than 100 µM and the TGI [59] was greater than 100 µM. The TGI [43] was greater than 100 µM, the TGI [44] was greater than 100 µM and the TGI [45] was greater than 100 µM. It also gave a TGI [46] greater than 100 µM, a TGI [47] greater than 100 µM and a TGI [48] greater than 100 µM. The TGI [49] was greater than 100 µM, the TGI [51] was greater than 100 µM and the TGI [52] was greater than 100 µM. The TGI [53] was greater than 100 µM and the TGI [55] was greater than 100 µM.
